Results published in ChEMBL document CHEMBL3885881, “DrugMatrix”.

Species on record: Rattus norvegicus
Test: DrugMatrix - Regimen: Daily Repeat
Format: toxicity, organism-based, Sprague-Dawley
Parameters: regimen Daily Repeat, gender Male, age 6-8 weeks
Conditions: in vivo, po, route oral GAVAGE, […]; for ABSOLUTE BASOPHIL / ABSOLUTE EOSINOPHIL / ABSOLUTE LYMPHOCYTE / ABSOLUTE MONOCYTE / ABSOLUTE SEGMENTED NEUTROPHIL / BASOPHIL / EOSINOPHIL / ERYTHROCYTE COUNT / HEMATOCRIT / HEMOGLOBIN / LEUKOCYTE COUNT / LYMPHOCYTE / MEAN CORPUSCULAR HEMOGLOBIN / MEAN CORPUSCULAR HEMOGLOBIN CONCENTRATION / MEAN CORPUSCULAR VOLUME / MONOCYTE / NEUTROPHIL / NUCLEATED RED BLOOD CELLS / PLATELET COUNT: tissue Blood; for ALANINE AMINOTRANSFERASE / ALBUMIN / ALKALINE PHOSPHATASE / ASPARTATE AMINOTRANSFERASE / BLOOD UREA NITROGEN / CARBON DIOXIDE / CHLORIDE / CHOLESTEROL / CREATINE PHOSPHOKINASE / CREATININE / GLUCOSE / LACTATE DEHYDROGENASE / LIPASE / PHOSPHORUS / POTASSIUM / SODIUM / TOTAL BILIRUBIN / TOTAL PROTEIN / URIC ACID: tissue Plasma
[1] = 2 mg/kg, 120 h, dose level High, time 5 day
[2] = 72 h, dose 0.58 mg/Kg, dose level Low, time 3 day
[3] = 120 h, dose 0.58 mg/Kg, dose level Low, time 5 day

Q: Which results are given for `COc1ccc2c(c1)c(CC(=O)OCC(=O)O)c(C)n2C(=O)c1ccc(Cl)cc1` [ACEMETACIN]?
A: ABSOLUTE BASOPHIL [1]: 0 CELLS/uL; ABSOLUTE EOSINOPHIL [1]: 198 CELLS/uL; ABSOLUTE LYMPHOCYTE [1]: 16941.67 CELLS/uL; ABSOLUTE MONOCYTE [1]: 330.33 CELLS/uL; ABSOLUTE SEGMENTED NEUTROPHIL [1]: 2163.33 CELLS/uL; BASOPHIL [1]: 0%; EOSINOPHIL [1]: 1%; ERYTHROCYTE COUNT [1]: 6.35 x10E6/uL; HEMATOCRIT [1]: 38.5%; HEMOGLOBIN [1]: 14.23 G/DL; LEUKOCYTE COUNT [1]: 19.63 x10E3/uL; LYMPHOCYTE [1]: 86.33%; MEAN CORPUSCULAR HEMOGLOBIN [1]: 22.47 pg; MEAN CORPUSCULAR HEMOGLOBIN CONCENTRATION [1]: 36.97 G/DL; MEAN CORPUSCULAR VOLUME [1]: 60.67 fL; MONOCYTE [1]: 1.67%; NEUTROPHIL [1]: 11%; NUCLEATED RED BLOOD CELLS [1]: 0 /100WBC; PLATELET COUNT [1]: 1196 x10E3/uL; ALANINE AMINOTRANSFERASE [1]: 77 u/L; ALBUMIN [1]: 4.33 G/DL; ALKALINE PHOSPHATASE [1]: 434 u/L; ASPARTATE AMINOTRANSFERASE [1]: 106.33 u/L; BLOOD UREA NITROGEN [1]: 15.33 mg/dL; CARBON DIOXIDE [1]: 26 mmol/L; CHLORIDE [1]: 102 MEQ/L; CHOLESTEROL [1]: 58 mg/dL; CREATINE PHOSPHOKINASE [1]: 673.33 u/L; CREATININE [1]: 0.19 mg/dL; GLUCOSE [1]: 155.33 mg/dL; LACTATE DEHYDROGENASE [1]: 783.33 u/L; LIPASE [1]: 10 u/L; PHOSPHORUS [1]: 11.9 mg/dL; POTASSIUM [1]: 6.17 MEQ/L; SODIUM [1]: 143.57 MEQ/L; TOTAL BILIRUBIN [1]: 0.2 mg/dL; TOTAL PROTEIN [1]: 5.87 G/DL; URIC ACID [1]: 1.93 mg/dL; ABSOLUTE BASOPHIL [2]: 0 CELLS/uL; ABSOLUTE EOSINOPHIL [2]: 126 CELLS/uL; ABSOLUTE LYMPHOCYTE [2]: 13647.33 CELLS/uL; ABSOLUTE MONOCYTE [2]: 360 CELLS/uL; ABSOLUTE SEGMENTED NEUTROPHIL [2]: 1833.33 CELLS/uL; BASOPHIL [2]: 0%; EOSINOPHIL [2]: 0.67%; ERYTHROCYTE COUNT [2]: 5.77 x10E6/uL; HEMATOCRIT [2]: 35.7%; HEMOGLOBIN [2]: 13.3 G/DL; LEUKOCYTE COUNT [2]: 15.97 x10E3/uL; LYMPHOCYTE [2]: 85.67%; MEAN CORPUSCULAR HEMOGLOBIN [2]: 23.07 pg; MEAN CORPUSCULAR HEMOGLOBIN CONCENTRATION [2]: 37.23 G/DL; MEAN CORPUSCULAR VOLUME [2]: 61.97 fL; MONOCYTE [2]: 2.33%; NEUTROPHIL [2]: 11.33%; NUCLEATED RED BLOOD CELLS [2]: 0 /100WBC; PLATELET COUNT [2]: 1055 x10E3/uL; ALANINE AMINOTRANSFERASE [2]: 66 u/L; ALBUMIN [2]: 3.93 G/DL; ALKALINE PHOSPHATASE [2]: 319 u/L; ASPARTATE AMINOTRANSFERASE [2]: 94 u/L; BLOOD UREA NITROGEN [2]: 16.33 mg/dL; CARBON DIOXIDE [2]: 27 mmol/L; CHLORIDE [2]: 102.33 MEQ/L; CHOLESTEROL [2]: 67.33 mg/dL; CREATINE PHOSPHOKINASE [2]: 359 u/L; CREATININE [2]: 0.19 mg/dL; GLUCOSE [2]: 160.33 mg/dL; LACTATE DEHYDROGENASE [2]: 379.33 u/L; LIPASE [2]: 9.67 u/L; PHOSPHORUS [2]: 11.53 mg/dL; POTASSIUM [2]: 6.9 MEQ/L; SODIUM [2]: 144.43 MEQ/L; TOTAL BILIRUBIN [2]: 0.2 mg/dL; TOTAL PROTEIN [2]: 5.37 G/DL; URIC ACID [2]: 1.47 mg/dL; ABSOLUTE BASOPHIL [3]: 0 CELLS/uL; ABSOLUTE EOSINOPHIL [3]: 113 CELLS/uL; ABSOLUTE LYMPHOCYTE [3]: 13989.33 CELLS/uL; ABSOLUTE MONOCYTE [3]: 257.33 CELLS/uL; ABSOLUTE SEGMENTED NEUTROPHIL [3]: 2073.67 CELLS/uL; BASOPHIL [3]: 0%; EOSINOPHIL [3]: 0.67%; ERYTHROCYTE COUNT [3]: 6.2 x10E6/uL; HEMATOCRIT [3]: 37.73%; HEMOGLOBIN [3]: 13.77 G/DL; LEUKOCYTE COUNT [3]: 16.43 x10E3/uL; LYMPHOCYTE [3]: 85.33%; MEAN CORPUSCULAR HEMOGLOBIN [3]: 22.23 pg; MEAN CORPUSCULAR HEMOGLOBIN CONCENTRATION [3]: 36.53 G/DL; MEAN CORPUSCULAR VOLUME [3]: 60.93 fL; MONOCYTE [3]: 1.67%; NEUTROPHIL [3]: 12.33%; NUCLEATED RED BLOOD CELLS [3]: 0 /100WBC; PLATELET COUNT [3]: 1216 x10E3/uL; ALANINE AMINOTRANSFERASE [3]: 65.33 u/L; ALBUMIN [3]: 4.53 G/DL; ALKALINE PHOSPHATASE [3]: 452 u/L; ASPARTATE AMINOTRANSFERASE [3]: 90.33 u/L; BLOOD UREA NITROGEN [3]: 19.67 mg/dL; CARBON DIOXIDE [3]: 26.67 mmol/L; CHLORIDE [3]: 105 MEQ/L; CHOLESTEROL [3]: 58.33 mg/dL; CREATINE PHOSPHOKINASE [3]: 293.67 u/L; CREATININE [3]: 0.22 mg/dL; GLUCOSE [3]: 163.33 mg/dL; LACTATE DEHYDROGENASE [3]: 355 u/L; LIPASE [3]: 9 u/L; PHOSPHORUS [3]: 11.6 mg/dL; POTASSIUM [3]: 6.5 MEQ/L; SODIUM [3]: 145.13 MEQ/L; TOTAL BILIRUBIN [3]: 0.13 mg/dL; TOTAL PROTEIN [3]: 6.27 G/DL; URIC ACID [3]: 1.97 mg/dL
